Literature values as cited in PubChem BioAssay AID1259409 (Chemical Carcinogenesis Research Information System (CCRIS), 2018).

Test system: rodent chemically induced tumor inhibition, incidence and multiplicity
Assay: CCRIS tumor inhibitor studies
Details: Species: RAT, Promoter: NONE USED

SMILES	tumour outcome (control, treated, inhibition, significance) (Carcinogen: AZOXYMETHANE, 25843-45-2, Dose [Inhibitor]: 0, 300 UMOL/KG IN 0.9% SALINE 1/2 D FOR THE DURATION OF STUDY (STUDY DURATION: 40 WK), Route [Inhibitor]: INTRAPERITONEAL, Strain/Sex: WISTAR/MALE, Target Tissue: Type of Lesion: COLON: TUMOR, Dose [Carcinogen]: 7.4 MG/KG IN 0.9% SALINE 1/WK FOR 10 WK)	tumour outcome (control, treated, inhibition, significance) (Carcinogen: DIMETHYLNITROSAMINE, 62-75-9, Dose [Inhibitor]: 1 MG IN CASTOR OIL ADMINISTERED TO IMMATURE RATS 1/4 WK FOR LIFE BEGINNING 100 D POST CARCINOGEN DOSE (STUDY DURATION: 1, Route [Inhibitor]: SUBCUTANEOUS, Strain/Sex: STRAIN-CD/MALE, Target Tissue: Type of Lesion: KIDNEY TUBULE: ADENOMA, Dose [Carcinogen]: 30 MG/KG IN DISTILLED WATER ONCE)	tumour outcome (control, treated, inhibition, significance) (Carcinogen: DIMETHYLNITROSAMINE, 62-75-9, Dose [Inhibitor]: 1 MG IN CASTOR OIL ADMINISTERED TO IMMATURE RATS 1/4 WK FOR LIFE BEGINNING 100 D POST CARCINOGEN DOSE (STUDY DURATION: 1, Route [Inhibitor]: SUBCUTANEOUS, Strain/Sex: STRAIN-CD/MALE, Target Tissue: Type of Lesion: KIDNEY: MESENCHYMAL TUMOR, Dose [Carcinogen]: 30 MG/KG IN DISTILLED WATER ONCE)	tumour outcome (control, treated, inhibition, significance) (Carcinogen: DIMETHYLNITROSAMINE, 62-75-9, Dose [Inhibitor]: 1 MG IN CASTOR OIL ADMINISTERED TO IMMATURE RATS 1/4 WK FOR LIFE BEGINNING 100 D POST CARCINOGEN DOSE (STUDY DURATION: 1, Route [Inhibitor]: SUBCUTANEOUS, Strain/Sex: STRAIN-CD/MALE, Target Tissue: Type of Lesion: KIDNEY: TRANSITIONAL CELL TUMOR, Dose [Carcinogen]: 30 MG/KG IN DISTILLED WATER ONCE)	tumour outcome (control, treated, inhibition, significance) (Carcinogen: DIMETHYLNITROSAMINE, 62-75-9, Dose [Inhibitor]: 1 MG IN CASTOR OIL ADMINISTERED TO IMMATURE RATS 1/4 WK FOR LIFE BEGINNING 100 D POST CARCINOGEN DOSE (STUDY DURATION: 1, Route [Inhibitor]: SUBCUTANEOUS, Strain/Sex: STRAIN-CD/MALE, Target Tissue: Type of Lesion: LUNG: ALVEOGENIC TUMOR, Dose [Carcinogen]: 30 MG/KG IN DISTILLED WATER ONCE)	tumour outcome (control, treated, inhibition, significance) (Carcinogen: DIMETHYLNITROSAMINE, 62-75-9, Dose [Inhibitor]: 1 MG IN CASTOR OIL ADMINISTERED TO MATURE RATS 1/4 WK FOR LIFE BEGINNING 100 D POST CARCINOGEN DOSE (STUDY DURATION: 140, Route [Inhibitor]: SUBCUTANEOUS, Strain/Sex: STRAIN-CD/MALE, Target Tissue: Type of Lesion: KIDNEY TUBULE: ADENOMA, Dose [Carcinogen]: 30 MG/KG IN DISTILLED WATER ONCE)	tumour outcome (control, treated, inhibition, significance) (Carcinogen: DIMETHYLNITROSAMINE, 62-75-9, Dose [Inhibitor]: 1 MG IN CASTOR OIL ADMINISTERED TO MATURE RATS 1/4 WK FOR LIFE BEGINNING 100 D POST CARCINOGEN DOSE (STUDY DURATION: 140, Route [Inhibitor]: SUBCUTANEOUS, Strain/Sex: STRAIN-CD/MALE, Target Tissue: Type of Lesion: LUNG: ALVEOGENIC TUMOR, Dose [Carcinogen]: 30 MG/KG IN DISTILLED WATER ONCE)
NCCCCN	16/20 (80%), 6/18 (33%), 59%, p<0.01	–	–	–	–	–	–
CCCCC(=O)O[C@H]1CC[C@H]2[C@@H]3CCc4cc(O)ccc4[C@H]3CC[C@]12C	–	15/28 (54%), 9/25 (36%), 33%, not calculated	16/28 (57%), 14/25 (56%), 2%, not significant	1/28 (4%), 0/25 (0%), 100%, not significant	19/28 (68%), 6/25 (24%), 65%, p<0.001	16/26 (62%), 18/28 (64%), -3%, not significant	13/26 (50%), 3/28 (11%), 78%, p<0.05
